According to US9682976B2, “Protein kinase C inhibitors and uses thereof” (Rigel Pharmaceuticals, Inc., priority 2012, dated 2017):

System: PKC mediated IL-2 production
Assay: IL-2 ELISA, human primary T cell, anti CD3+CD28+
Format: cell-based
Conditions: Homo sapiens, T-cell, 24 h, human primary T cells stimulated with αCD3 and αCD28, 24 hours
Summary of the method: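 IL-2 was quantified by ELISA in 24 h supernatants from primary human T cells given a 1 h compound pre-treatment at 37° C. These cells had been expanded from blood mononuclear cells on αCD3/αCD28 with IL-2, and the IL-2 was removed by washing. Stimulation used plate-bound αCD3 ([…]) plus αCD28 (5 μg/ml); the counter assay used PMA (0.5 ng/ml) with ionomycin (0.1 uM) instead.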

EC50	SMILES
100 to 500 nM	CO[C@@H](C)COc1cc(F)c(Nc2ncc(F)c(N[C@@H]3C[C@@H]4CCCN4C(C)(C)C3)n2)cc1-n1nnn(C)c1=O [Compound 233, 1-(5-((4-(((7R,8aS)-5,5-dimethyloctahydroindolizin-7-yl)amino)-5-fluoropyrimidin-2-yl)amino)-4-fluoro-2-((S)-2-methoxypropoxy)phenyl)-4-methyl-1,4-dihydro-5H-tetrazol-5-one]
> 10000 nM	CO[C@@H](C)COc1cc(F)c(Nc2ncc(F)c(N(C[C@H](C)OC)[C@@H]3C[C@@H]4CCCN4C(C)(C)C3)n2)cc1-n1nnn(C)c1=O [Compound 234, 1-(5-((4-(((7R,8aS)-5,5-dimethyloctahydroindolizin-7-yl)((S)-2-methoxypropyl)amino)-5-fluoropyrimidin-2-yl)amino)-4-fluoro-2-((S)-2-methoxypropoxy)phenyl)-4-methyl-1,4-dihydro-5H-tetrazol-5-one]
< 100 nM	C[C@H](O)COc1cc(F)c(Nc2ncc(Cl)c(N[C@@H]3C[C@@H]4CCCN4C(C)(C)C3)n2)cc1-n1nnn(C)c1=O [Compound 235, 1-(5-((5-chloro-4-(((7R,8aS)-5,5-dimethyloctahydroindolizin-7-yl)amino)pyrimidin-2-yl)amino)-4-fluoro-2-((S)-2-hydroxypropoxy)phenyl)-4-methyl-1,4-dihydro-5H-tetrazol-5-one]
< 100 nM	CC(O)COc1cc(F)c(Nc2ncc(Cl)c(N[C@@H]3C[C@@H]4CCCN4C(C)(C)C3)n2)cc1-n1nnn(C)c1=O (stereo partly drawn) [Compound 236, 1-(5-((5-chloro-4-(((7R,8aS)-5,5-dimethyloctahydroindolizin-7-yl)amino)pyrimidin-2-yl)amino)-4-fluoro-2-(2-hydroxypropoxy)phenyl)-4-methyl-1,4-dihydro-5H-tetrazol-5-one]
< 100 nM	Cn1nnn(-c2cc(Nc3ncc(Cl)c(N[C@@H]4C[C@@H]5CCCN5C(C)(C)C4)n3)c(F)cc2OCCO)c1=O [Compound 237, 1-(5-((5-chloro-4-(((7R,8aS)-5,5-dimethyloctahydroindolizin-7-yl)amino)pyrimidin-2-yl)amino)-4-fluoro-2-(2-hydroxyethoxy)phenyl)-4-methyl-1,4-dihydro-5H-tetrazol-5-one]
500 to 1000 nM	CO[C@@H](C)COc1cc(F)c(Nc2ncc(Cl)c(N[C@@H]3C[C@@H]4CCCN4C(C)(C)C3)n2)cc1-n1nnn(C)c1=O [Compound 238, 1-(5-((5-chloro-4-(((7R,8aS)-5,5-dimethyloctahydroindolizin-7-yl)amino)pyrimidin-2-yl)amino)-4-fluoro-2-((S)-2-methoxypropoxy)phenyl)-4-methyl-1,4-dihydro-5H-tetrazol-5-one]
> 10000 nM	CO[C@@H](C)COc1cc(F)c(Nc2ncc(Cl)c(N(C[C@H](C)OC)[C@@H]3C[C@@H]4CCCN4C(C)(C)C3)n2)cc1-n1nnn(C)c1=O [Compound 239, 1-(5-((5-chloro-4-(((7R,8aS)-5,5-dimethyloctahydroindolizin-7-yl)((S)-2-methoxypropyl)amino)pyrimidin-2-yl)amino)-4-fluoro-2-((S)-2-methoxypropoxy)phenyl)-4-methyl-1,4-dihydro-5H-tetrazol-5-one]
< 100 nM	Cn1nnn(-c2cc(Nc3ncc(Cl)c(N[C@@H]4C[C@@H]5CCCN5C(C)(C)C4)n3)c(F)cc2OCC(C)(C)O)c1=O [Compound 240, 1-(5-((5-chloro-4-(((7R,8aS)-5,5-dimethyloctahydroindolizin-7-yl)amino)pyrimidin-2-yl)amino)-4-fluoro-2-(2-hydroxy-2-methylpropoxy)phenyl)-4-methyl-1,4-dihydro-5H-tetrazol-5-one]
100 to 500 nM	COc1cc(Nc2ncc(F)c(N[C@@H]3C[C@@H]4CCCN4C(C)(C)C3)n2)c(F)c(-n2nnnc2C)c1 [Compound 241, 5-fluoro-N2-(2-fluoro-5-methoxy-3-(5-methyl-1H-tetrazol-1-yl)phenyl)-N4-((7R,8aS)-octahydro-5,5-dimethylindolizin-7-yl)pyrimidine-2,4-diamine]
< 100 nM	COc1cc(-n2nnnc2C)cc(Nc2ncc(F)c(N[C@@H]3C[C@@H]4CCCN4C(C)(C)C3)n2)c1F [Compound 242, 5-fluoro-N2-(2-fluoro-3-methoxy-5-(5-methyl-1H-tetrazol-1-yl)phenyl)-N4-((7R,8aS)-octahydro-5,5-dimethylindolizin-7-yl)pyrimidine-2,4-diamine]
500 to 1000 nM	COc1cc(-n2nnnc2C)c(F)c(Nc2ncc(F)c(N[C@@H]3C[C@@H]4CCCN4C(C)(C)C3)n2)c1F [Compound 243, 5-fluoro-N2-(2,6-difluoro-3-methoxy-5-(5-methyl-1H-tetrazol-1-yl)phenyl)-N4-((7R,8aS)-octahydro-5,5-dimethylindolizin-7-yl)pyrimidine-2,4-diamine]
100 to 500 nM	Cn1nc2n(c1=O)-c1cc(Nc3ncc(F)c(N[C@@H]4C[C@@H]5CCCN5C(C)(C)C4)n3)ccc1OC2(C)C [Compound 248, 5-fluoro-N2-(1H-2,4-dihydron-2,4,4-trimethyl-[1,2,4]triazolo[3,4-c][1,4]benzoxazin-1-one-8-yl)-N4-((7R,8aS)-octahydro-5,5-dimethylindolizin-7-yl)pyrimidine-2,4-diamine]
< 100 nM	Cc1nnnn1-c1cc(Nc2ncc(F)c(N[C@@H]3C[C@@H]4CCCN4C(C)(C)C3)n2)c(F)cc1OC1COC1 [Compound 249, 5-fluoro-N2-(2-fluoro-5-(5-methyl-1H-tetrazol-1-yl)-4-(oxetan-3-yloxy)phenyl)-N4-((7R,8aS)-octahydro-5,5-dimethylindolizin-7-yl)pyrimidine-2,4-diamine]
1000 to 10000 nM	CC1(C)Oc2ccc(Nc3ncc(F)c(N[C@@H]4C[C@@H]5CCCN5C(C)(C)C4)n3)cc2-n2c1nn(C(CO)CCl)c2=O (stereo partly drawn) [Compound 250, 5-fluoro-N2-(1H-2,4-dihydron-4,4-dimethyl-2-(3-chloropropanol-2-yl)[1,2,4]triazolo[3,4-c][1,4]benzoxazin-1-one-8-yl)-N4-((7R,8aS)-octahydro-5,5-dimethylindolizin-7-yl)pyrimidine-2,4-diamine]
1000 to 10000 nM	CC1(C)Oc2ccc(Nc3ncc(F)c(N[C@@H]4C[C@@H]5CCCN5C(C)(C)C4)n3)cc2-n2c1nn(C1COC1)c2=O [Compound 251, 5-fluoro-N2-(1H-2,4-dihydron-4,4-dimethyl-2-(oxetan-3-yl)[1,2,4]triazolo[3,4-c][1,4]benzoxazin-1-one-8-yl)-N4-((7R,8aS)-octahydro-5,5-dimethylindolizin-7-yl)pyrimidine-2,4-diamine]
1000 to 10000 nM	Cc1nnnn1-c1cc(Nc2ncc(F)c(N[C@@H]3C[C@@H]4CCCN4C(C)(C)C3)n2)c(F)cc1O [Compound 252, 4-(4-((7R,8aS)-octahydro-5,5-dimethylindolizin-7-ylamino)-5-fluoropyrimidin-2-ylamino)-5-fluoro-2-(5-methyl-1H-tetrazol-1-yl)phenol]
1000 to 10000 nM	CNc1nc2cc(Nc3ncc(F)c(N[C@@H]4C[C@@H]5CCCN5C(C)(C)C4)n3)c(F)cc2o1 [Compound 253, N5-(4-((7R,8aS)-octahydro-5,5-dimethylindolizin-7-ylamino)-5-fluoropyrimidin-2-yl)-6-fluoro-N2-methylbenzo[d]oxazole-2,5-diamine]
< 100 nM	CC1(C)C[C@H](Nc2nc(Nc3cc(-n4nnnc4C4CC4)c(OC4COC4)cc3F)ncc2F)C[C@@H]2CCCN21 [Compound 255, N2-(5-(5-cyclopropyl-1H-tetrazol-1-yl)-2-fluoro-4-(oxetan-3-yloxy)phenyl)-5-fluoro-N4-((7R,8aS)-octahydro-5,5-dimethylindolizin-7-yl)pyrimidine-2,4-diamine]
1000 to 10000 nM	CC1(C)C[C@H](Nc2nc(Nc3cc(-n4nnnc4C4CC4)c(O)cc3F)ncc2F)C[C@@H]2CCCN21 [Compound 256, 4-(4-((7R,8aS)-octahydro-5,5-dimethylindolizin-7-ylamino)-5-fluoropyrimidin-2-ylamino)-2-(5-cyclopropyl-1H-tetrazol-1-yl)-5-fluorophenol]
> 10000 nM	CC(C)Oc1cc(F)c(Nc2ncc(F)c(N[C@@H]3C[C@@H]4CCCN4C(C)(C)C3)n2)cc1-n1nnnc1C1CC1 [Compound 257, N2-(5-(5-cyclopropyl-1H-tetrazol-1-yl)-2-fluoro-4-isopropoxyphenyl)-5-fluoro-N4-((7R,8aS)-octahydro-5,5-dimethylindolizin-7-yl)pyrimidine-2,4-diamine]
1000 to 10000 nM	CNc1nnnn1-c1cc(Nc2ncc(F)c(N[C@@H]3C[C@@H]4CCCN4C(C)(C)C3)n2)c(F)cc1OC1COC1 [Compound 258, 5-fluoro-N2-(2-fluoro-5-(5-(methylamino)-1H-tetrazol-1-yl)-4-(oxetan-3-yloxy)phenyl)-N4-((7R,8aS)-octahydro-5,5-dimethylindolizin-7-yl)pyrimidine-2,4-diamine]
1000 to 10000 nM	CC1(C)C[C@H](Nc2nc(Nc3cccc(-n4nnnc4S)c3)ncc2F)C[C@@H]2CCCN21 [Compound 259, 1-(3-(4-((7R,8aS)-octahydro-5,5-dimethylindolizin-7-ylamino)-5-fluoropyrimidin-2-ylamino)phenyl)-1H-tetrazole-5-thiol]
> 10000 nM	CC1(C)C[C@H](Nc2nc(Nc3cccc(-n4nn[nH]c4=O)c3)ncc2F)C[C@@H]2CCCN21 [Compound 260, 1-(3-(4-((7R,8aS)-octahydro-5,5-dimethylindolizin-7-ylamino)-5-fluoropyrimidin-2-ylamino)phenyl)-1H-tetrazol-5(4H)-one]
< 100 nM	CSc1nnnn1-c1cccc(Nc2ncc(F)c(N[C@@H]3C[C@@H]4CCCN4C(C)(C)C3)n2)c1 [Compound 261, 5-fluoro-N4-((7R,8aS)-octahydro-5,5-dimethylindolizin-7-yl)-N2-(3-(5-(methylthio)-1H-tetrazol-1-yl)phenyl)pyrimidine-2,4-diamine]
< 100 nM	CC1(C)C[C@H](Nc2nc(Nc3cccc(-n4nnnc4SC4COC4)c3)ncc2F)C[C@@H]2CCCN21 [Compound 262, 5-fluoro-N4-((7R,8aS)-octahydro-5,5-dimethylindolizin-7-yl)-N2-(3-(5-(oxetan-3-ylthio)-1H-tetrazol-1-yl)phenyl)pyrimidine-2,4-diamine]
